Results: patent publication US20240226048A1, “METHODS OF TREATMENT USING BEMPEDOIC ACID” (Esperion Therapeutics, Inc., priority 2023, published 2024)

Test: CLEAR OUTCOMES trial: LDL-cholesterol, hsCRP and other lipid/biomarker end points
Assay type: in vivo, human
Excerpt: The CLEAR OUTCOMES trial was a randomized, placebo-controlled, double-blind trial that enrolled patients at 1250 sites in 32 countries. An independent Data Monitoring Committee reviewed safety and efficacy data during the trial.
Patients 18 to 85 years of age were eligible for enrollment if they met either of two criteria for increased cardiovascular risk, a prior cardiovascular event (secondary prevention) or clinical features that placed them at high risk for a cardiovascular event (primary prevention). (Nicholls S, Lincoff A M, Bays H E, et al. Rationale and design of the CLEAR-outcomes trial: Evaluating the effect of bempedoic acid on cardiovascular events in patients with statin intolerance. Am Heart J. 2021 May; 235: 104-112) All patients provided written informed consent. Patients had to report statin intolerance due to an adverse effect that started or increased during statin therapy and resolved or improved after statin therapy was discontinued. Patients could be enrolled if they tolerated a very low average daily statin dose (e.g., an average daily dose of rosuvastatin <5 mg, atorvastatin <10 mg, simvastatin <10 mg, lovastatin <20 mg, pravastatin <40 mg, fluvastatin <40 mg, or pitavastatin <2 mg). Other lipid-lowering therapies were permitted, including ezetimibe, niacin, bile acid resins, fibrates, and/or proprotein convertase subtilisin kexin type 9 (PCSK9) inhibitors. Full inclusion and exclusion criteria are provided in Nicholls et al. (Am Heart J. 2021).
Eligible patients entered a 4-week run-in period during which patients were treated with single-blind placebo. If patients were intolerant to placebo treatment or if adherence was <80% by tablet count, they were not eligible for randomization. Patients who successfully completed the run-in period were randomly assigned in a 1:1 ratio to receive bempedoic acid at an oral dose of 180 mg or matching placebo, administered daily. Beginning 6 months after enrollment, the central laboratory notified the investigator if the patient's LDL-cholesterol level was ≥25% higher than baseline. These patients were counseled on healthy dietary guidelines and reminded to take all lipid-regulating medications. If repeat testing confirmed that LDL-cholesterol value met the threshold criteria, the provider could adjust the lipid-lowering treatment regimen per standard of care and local guidelines.
This was an event-driven trial designed to provide at least 90% power to detect a 15% relative risk reduction for the primary composite end point at an overall two-sided significance level of 0.05. The trial required a minimum of 1620 primary composite events with >24 months of follow-up for all patients and at least 810 first key secondary end points. The average treatment duration was estimated to be 42 months and a lost-to-follow-up rate of 1% per year. Assuming a 3.59% annual event rate in the placebo group, enrollment of 12,600 patients was required, subsequently amended to 14,000. There were no interim efficacy analyses. A hierarchical approach was prespecified to evaluate sequentially each of the six key secondary efficacy end points with statistical significance at each step required to test the next hypothesis, thereby preserving the study-wise Type I error rate at 5%. All analyses were based on the intent-to-treat principle. The primary efficacy end point was analyzed using Cox proportional hazards model with treatment as a factor to generate the hazard ratio (HR) and 95% confidence interval (CI). The p-value was obtained from a log-rank test.

[1] = Inadequately Controlled Diabetes at Baseline, median
[2] = Inadequately Controlled Diabetes at Baseline, observed mean
[3] = median, 180 mg oral daily, N = 6992
[4] = observed mean, 180 mg oral daily, N = 6992

CC(C)(CCCCCC(O)CCCCCC(C)(C)C(=O)O)C(=O)O [Bempedoic Acid, Bempedoic acid]
Median change from baseline to month 6 in hsCRP (180 mg oral daily, N = 6992): −22.2% | Change from baseline to Month 6 in fasting glucose (All patients, median): -1.0 mg/dL | Change from baseline to Month 12 in fasting glucose (All patients, median): 0.0 mg/dL | Change from baseline to Month 6 in HbA1c (%) (All patients, observed mean): −0.003% | Change from baseline to Month 12 in HbA1c (%) (All patients, observed mean): 0.04% | Change from baseline to Month 6 in fasting glucose [1]: -4.0 mg/dL | Change from baseline to Month 12 in fasting glucose [1]: -2.75 mg/dL | Change from baseline to Month 6 in HbA1c (%) [2]: −0.20% | Change from baseline to Month 12 in HbA1c (%) [2]: −0.06% | Change from baseline to month 12 in HbA1C in patients with inadequately controlled type 2 diabetes mellitus (adjusted for baseline HbA1c, pattern-mixed model, 180 mg oral daily): −0.04% | Mean change from baseline to month 6 in mean LDL-C (adjusted for baseline LDL-C, pattern-mixed model, 180 mg oral daily, N = 6992): −21.1% | reduction of hsCRP (after 6 months treatment, compared with placebo, median baseline 2.3 mg/L): 21.6% | Change from baseline to month 12 in HbA1C in patients with inadequately controlled type 2 diabetes mellitus, Difference (95% CI) (difference vs placebo): −0.03% | Mean change from baseline to month 6 in mean LDL-C, Difference (95% CI) (difference vs placebo): −20.3% | Median change from baseline to month 6 in hsCRP, Difference (95% CI) (difference vs placebo): −21.6% | Percent change from baseline to Month 6 in triglycerides [3]: −3.4% | Percent change from baseline to Month 12 in triglycerides [3]: −4.8% | Percent change from baseline to Month 6 in HDL-C [4]: −5.8% ± | Percent change from baseline to Month 6 in non-HDL-C [4]: −17.2% ± | Percent change from baseline to Month 6 in total cholesterol [4]: −16.9% ± | Percent change from baseline to Month 12 in HDL-C [4]: −5.7% ± | Percent change from baseline to Month 12 in non-HDL-C [4]: −17.1% ± | Percent change from baseline to Month 12 in total cholesterol [4]: −14.8% ± | Percent change from baseline to Month 24 in non-HDL-C [4]: −16.2% ±
